Assay results published in paper PMC3806745, “Selective Inhibition of Matrix Metalloproteinase-9 Attenuates Secondary Damage Resulting from Severe Traumatic Brain Injury” (PLoS ONE, 2013).
Where two headings read alike, the source gives them in different places.

Tests used:
[1] = Regional brain distribution of SB-3CT and p-OH SB-3CT after repeated i.p. SB-3CT; type: in vivo, mouse; conditions: mice; for Conc, whole brain: 10 minutes after the last i.p. dose of SB-3CT (25 mg/kg at 0, 2, 24 h)
Description: (§3) Under anesthesia, terminal blood was collected in heparin tubes through the posterior vena cava at various time points after the last dose, and tubes were centrifuged to collect plasma. Whole brain samples were harvested after transcardiac perfusion with saline and immediately flash frozen in liquid nitrogen and stored at −80°C until analysis. […] At 10 minutes after the last dose, whole brain samples were rapidly dissected into different regions (cortex, striatum, hippocampus, cerebellum and brain stem), and immediately frozen in dry ice.
(§4) A 75-µL aliquot of plasma was mixed with 150 µL of internal standard in acetonitrile. The sample was centrifuged at 10,000×g for 10 minutes. Brain samples were weighed and homogenized for 5 minutes in one volume equivalent of cold acetonitrile, containing an internal standard, using a bullet blender (Next Advance, Inc., Averill Park, NY). For regional brain distribution, the striatum, hippocampus, cerebellum and brain stem samples were pooled from 3 different mice for analysis.
The homogenates were centrifuged twice at 20,000×g for 20 minutes at 4°C. […] Quantification was performed using peak area ratios relative to the internal standard and linear regression parameters were calculated from the calibration curve standards prepared in blank mouse plasma (and blank brain). The internal standard used in all of the analyses was N-(4-(4-((thiiran-2-ylmethyl)sulfonyl)phenoxy)phenyl)methanesulfonamide [43], which was analyzed by MRM using the transition 398→261. The chromatographic, MRM conditions, and method validation were the same as previously described [17].

[2] = cited from earlier work
[3] = mouse, in vivo, ip, 25 mg/kg
Description: as §3, §4
(§5) The homogenates were centrifuged twice at 20,000×g for 20 minutes at 4°C. […] Quantification was performed using peak area ratios relative to the internal standard and linear regression parameters were calculated from the calibration curve standards prepared in blank mouse plasma (and blank brain). The internal standard used in all of the analyses was N-(4-(4-((thiiran-2-ylmethyl)sulfonyl)phenoxy)phenyl)methanesulfonamide [43], which was analyzed by MRM using the transition 398→261.
(§6) Pharmacokinetic parameters were calculated as follows. The area under the mean concentration-time curve up to the last quantifiable sampling time (AUC 0–last) was calculated by the trapezoidal rule using the pharmacokinetic software PK Solutions (Version 2.0, Summit Research Services, Montrose, CO). The AUC-time curve from time zero to infinity (AUC 0–∞), representing systemic exposure of a therapeutic agent in the body, was calculated as AUC 0–last+(C last/k), where C last is the concentration at the last quantifiable sampling time and k is the elimination rate constant. Half-lives (t ½α and t ½β) were estimated from the linear segment of the initial or terminal portion of the concentration-time data by linear regression, where the slope of the line was the rate constant k and t ½ = ln 2/k.

[4] = tested on: TBI mouse model (EM impactor CCI); test: Neurons with dendrites, NeuN/MAP2 immunohistochemistry after TBI; type: in vivo; conditions: TBI mice, 25 mg/kg i.p. for 7 days; 7 days after TBI
Description: (§1) All animal procedures were performed under the compliance with protocol approval by the University of Missouri Animal Care and Use Committee, which is in accordance with the National Institutes of Health Guide for the Care and Use of Laboratory Animals. The TBI procedure employed an EM impactor for CCI and was conducted as previously described. A total of 86 mice were used in this study. Briefly, 8–10 week-old adult male C57BL/6J mice (The Jackson Laboratory, Bar Harbor, ME) weighing 20–25 g were anesthetized with 2.0% gaseous isoflurane in a nitrogen/oxygen mixture inside a sealed anesthesia chamber. Each mouse was then stably placed on a Kopf stereotaxic apparatus (David Kopf Instruments, Tujunga, CA). Body temperature was monitored with a rectal thermistor probe (TH-10Kmp, Cell MicroControls, Norfolk, VA), and maintained at a constant 37°C on a silicon heating pad (HS-3×2.5 Heater, Cell MicroControls, Norfolk, VA). […]
(§2) Fluorescence immunohistochemistry was carried out as described, [16], [19]. For each brain analyzed, coronal sections were chosen near the center of the craniotomy (Bregma −1.50 mm) and adjacent to a section stained with cresyl violet for comparison. […]

[5] = Plasma and brain levels and pharmacokinetics of SB-3CT and p-OH SB-3CT after repeated i.p. SB-3CT (UPLC/ESI-MRM); conditions: mice
Description: as §3, §4, §5, §6

[6] = tested on: TBI mouse model (EM impactor CCI); test: Microglial activation and astrogliosis, CD11b/GFAP immunofluorescence after TBI; type: in vivo; conditions: TBI mice, SB-3CT treatment for 7 days; 7 days post-trauma
Description: as §1, §2

[7] = tested on: TBI mouse model (EM impactor CCI); test: Brain lesion volume in cresyl violet-stained sections after TBI (stereology, WSI); type: in vivo; conditions: TBI mice, 25 mg/kg i.p. for 7 days
Description: All animal procedures were performed under the compliance with protocol approval by the University of Missouri Animal Care and Use Committee, which is in accordance with the National Institutes of Health Guide for the Care and Use of Laboratory Animals. The TBI procedure employed an EM impactor for CCI and was conducted as previously described. A total of 86 mice were used in this study. Briefly, 8–10 week-old adult male C57BL/6J mice (The Jackson Laboratory, Bar Harbor, ME) weighing 20–25 g were anesthetized with 2.0% gaseous isoflurane in a nitrogen/oxygen mixture inside a sealed anesthesia chamber. Each mouse was then stably placed on a Kopf stereotaxic apparatus (David Kopf Instruments, Tujunga, CA). Body temperature was monitored with a rectal thermistor probe (TH-10Kmp, Cell MicroControls, Norfolk, VA), and maintained at a constant 37°C on a silicon heating pad (HS-3×2.5 Heater, Cell MicroControls, Norfolk, VA). Following a midline skin incision and removal of connective tissue under sterile conditions, a 5.0 mm diameter craniotomy was performed in the left parietotemporal skull using a pedal-operated high-speed micro-drill mounted on the stereotaxic arm. A 5.0-mm diameter bone disc was then removed to expose the left cortex, while keeping the dura mater intact. A MATLAB-controlled EM impactor (MyNeuroLab Stereotaxic Impactor, St. Louis, MO) with a 3.0-mm diameter tip was centered at 2.7 mm to the left of the midline suture and 3.0 mm rostral to lambda, at an angle of 15° with the vertical. Once the position was set, the EM impactor delivered a CCI with a velocity of 5.0 m/s and dwell time of 100 ms, at a depth of 2.5 mm. This operation produces a moderately severe contusion in the left parietotemporal cortex and the underlying hippocampus as marked by pronounced behavioral deficits, but virtually no mortality. Following impact, the original skull disc was placed back over the exposed cortex, and the incision was sutured. Each mouse was released from anesthesia and placed in an empty cage over a heating pad for recovery. All efforts were made to minimize animal suffering. For sham control mice used in the study, only the craniotomy was performed. […] Mice were observed daily for the duration of the study (7 or 30 days). For design of the 30-day long term study, animals in each group were double-blinded and randomly assigned into two different tissue process procedures after behavioral testing–mouse brains were either fixed and sectioned for histopathological evaluation, or freshly dissected and then frozen at −80°C for later analysis, reflecting the difference of the animal numbers mentioned in the legends of Figures 7 and 8.
At 7 or 30 days after TBI, mice were sacrificed and brains were processed for histochemical staining and assessment of brain lesion volumes using the stereology technique as described, [45]. Briefly, mice were sacrificed at appropriate experimental time points and transcardially perfused with 4% paraformaldehyde in 100 mM phosphate buffer (PB) and brains were dissected. […] Every 5th section was mounted on poly-L-lysine coated glass slides and stained with cresyl violet to quantify brain lesion volumes and examine neuronal cell death.
Systematic evaluation of a large number of histological specimens in an unbiased manner requires high-speed imaging tools for the supervised analysis of pathological assessment to reduce quantitative variations. […]

MMP-9 [8] = biological target: MMP-9 (Mus musculus, UniProt P41245); test: Gelatin zymography of cortical tissue after TBI; type: in vivo; conditions: TBI mice, 25 mg/kg/day i.p. for 7 days, 7 days post-trauma, vs vehicle
Description: as §1
Gelatinase activity in brain homogenates was determined by gelatin zymography as described previously, [16]. […] Bound material was released from the beads using 10% DMSO in TBS, and samples were analyzed by electrophoresis in a 10% SDS-PAGE gel containing 0.1% gelatin under non-reducing conditions, followed by incubation overnight at 37°C in 50 mM Tris buffer, pH 8, with 5 mM CaCl2, 200 mM NaCl, and 0.02% Brij 35. […]

[9] = tested on: TBI mouse model (EM impactor CCI); test: Barnes maze after TBI; type: in vivo; conditions: TBI mice, 25 mg/kg i.p. for 7 days
Description: as §1, with “VA). Following a midline skin incision and removal of connective tissue under sterile conditions, a 5.0 mm diameter craniotomy was performed in the left parietotemporal skull using a pedal-operated high-speed micro-drill mounted on the stereotaxic arm. A 5.0-mm diameter bone disc was then removed to expose the left cortex, while keeping the dura mater intact.” for “VA).”

[10] = tested on: TBI mouse model (EM impactor CCI); test: Beam-walking test after TBI; type: in vivo; conditions: TBI mice, 25 mg/kg i.p. for 7 days
MMP-9 [11] = conditions: cited from earlier work
[12] = 10 minutes after the last i.p. dose of SB-3CT
[13] = repeated 25 mg/kg i.p. SB-3CT (0, 2, 24 h), 10 min after last dose
[14] = repeated 25 mg/kg i.p. SB-3CT, 10 min after last dose
[15] = repeated 25 mg/kg i.p. SB-3CT, 20 min after last dose
[16] = repeated 25 mg/kg i.p. SB-3CT, 30 min after last dose
[17] = repeated 25 mg/kg i.p. SB-3CT, 60 min after last dose
[18] = repeated 25 mg/kg i.p. SB-3CT, 90 min after last dose
[19] = repeated 25 mg/kg i.p. SB-3CT, 120 min after last dose
[20] = repeated 25 mg/kg i.p. SB-3CT, 180 min after last dose

Sequence of MMP-9 (Mus musculus, UniProt P41245) (P41245 108-730): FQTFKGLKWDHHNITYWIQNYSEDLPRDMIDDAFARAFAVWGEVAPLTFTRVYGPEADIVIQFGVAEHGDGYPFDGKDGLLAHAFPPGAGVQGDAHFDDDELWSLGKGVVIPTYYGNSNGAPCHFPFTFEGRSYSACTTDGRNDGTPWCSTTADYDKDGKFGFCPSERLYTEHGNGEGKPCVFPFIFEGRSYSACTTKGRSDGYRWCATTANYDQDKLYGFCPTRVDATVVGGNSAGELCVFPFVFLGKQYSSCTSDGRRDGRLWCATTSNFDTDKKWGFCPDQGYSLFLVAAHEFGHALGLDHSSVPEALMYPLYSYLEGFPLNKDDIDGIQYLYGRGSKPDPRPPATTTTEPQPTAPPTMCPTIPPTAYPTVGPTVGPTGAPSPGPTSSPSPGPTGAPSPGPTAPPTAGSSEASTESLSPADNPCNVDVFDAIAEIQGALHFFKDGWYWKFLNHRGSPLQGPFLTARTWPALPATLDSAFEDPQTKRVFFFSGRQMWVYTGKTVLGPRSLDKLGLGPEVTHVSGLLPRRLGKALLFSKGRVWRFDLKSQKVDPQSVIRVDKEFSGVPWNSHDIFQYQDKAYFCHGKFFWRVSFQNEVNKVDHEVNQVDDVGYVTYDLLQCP

O=S(=O)(CC1CS1)c1ccc(Oc2ccccc2)cc1 (stereo not shown) [SB-3CT]
Conc, whole brain [1]: 3.7±0.5 pmole/mg tissue | Conc, brain stem [1, 12]: 2.8±0.8 pmole/mg tissue | Conc, cerebellum [1, 12]: 2.4±0.4 pmole/mg tissue | Conc, cortex [1, 12]: 2.7±0.8 pmole/mg tissue | Conc, hippocampus [1, 12]: 3.1±0.8 pmole/mg tissue | Conc, plasma [1, 12]: 6200 ± 100 nM | Conc, striatum [1, 12]: 3.5±1.1 pmole/mg tissue | Brain AUC 0–∞ ([2]; following a single dose of SB-3CT): 122 pmol·min/mg | Elimination half-life ([2]; mouse, in vivo): 46 min | AUC 0–last, brain [3]: 86.1 pmol·min/mg | AUC 0–last, plasma [3]: 130 µM·min | AUC 0–∞, brain [3]: 87.8 pmol·min/mg | AUC 0–∞, plasma [3]: 134 µM·min | t ½β (elimination half-life), brain [3]: 53 min | t ½β (elimination half-life), plasma [3]: 25 min | Surviving neurons with dendrites, contralateral cortex [4]: 7.53±0.59% | Surviving neurons with dendrites, lesioned cortex [4]: 2.86±0.63% | Brain AUC 0–∞, equivalent ([5]; assuming a density of 1 g/mL, repeated 25 mg/kg i.p. SB-3CT): 87.8 µM·min | t ½α, brain ([5]; repeated 25 mg/kg i.p. SB-3CT): 8.7 min | t ½α, plasma ([5]; repeated 25 mg/kg i.p. SB-3CT): 6.6 min | Brain concentration [5, 13]: 3.7±0.5 pmole/mg tissue | Plasma concentration [5, 14]: 6200 ± 100 nM | Brain concentration [5, 15]: 1.6±0.3 pmole/mg tissue | Plasma concentration [5, 15]: 2900 ± 300 nM | Brain concentration [5, 16]: 0.99±0.09 pmole/mg tissue | Plasma concentration [5, 16]: 760 ± 260 nM | Brain concentration [5, 17]: 0.19±0.05 pmole/mg tissue | Plasma concentration [5, 17]: 550 ± 80 nM | Brain concentration [5, 18]: 0.16±0.08 pmole/mg tissue | Plasma concentration [5, 18]: 220 ± 130 nM | Brain concentration [5, 19]: 0.049±0.013 pmole/mg tissue | Plasma concentration [5, 19]: 100 ± 40 nM | Brain concentration [5, 20]: 0.022±0.005 pmole/mg tissue | Immunoreactivity of GFAP-stained astrocytes [6]: partially attenuated | Numbers of CD11b-positive microglial cells in lesioned cortex vs vehicle [6]: significantly reduced | Reduction in brain damage (cortical lesion volume) vs vehicle ([7]; 7 days post-trauma): ~14% | Cortical lesion volume ([7]; 30 days post-trauma): 15.60±1.26 mm^3 | Cortical lesion volume smaller than vehicle ([7]; 30 days post-trauma): approximately 24% | Hippocampal lesion volume ([7]; 30 days post-trauma): 4.91±0.40 mm^3 | Hippocampal lesion volume smaller than vehicle ([7]; 30 days post-trauma): approximately 26% | Levels of proMMP-9 and active MMP-9 in lesioned cortex (gelatin zymography, densitometry) (MMP-9 [8]): attenuated | Barnes maze latency AUC over 10 trials (memory acquisition) vs vehicle ([9]; 5-day task started 18 days post-trauma): ameliorated cognitive deficits | Barnes maze latency and error numbers vs vehicle ([9]; last two days of the trials (days 22 and 23 after TBI)): significantly attenuated | Reduction of motor deficits (beam-walking foot faults) vs vehicle ([10]; day 7 after TBI): more than 50% | Motor function recovery (beam-walking) ([10]; day 14 after TBI): almost-complete recovery

O=S(=O)(CC1CS1)c1ccc(Oc2ccc(O)cc2)cc1 (stereo not shown) [p-OH SB-3CT]
Ki (MMP-9 [11]): 160 nM | Conc, whole brain [1]: 0.14±0.04 pmole/mg tissue | Conc, brain stem [1, 12]: 0.13±0.03 pmole/mg tissue | Conc, cerebellum [1, 12]: 0.13±0.03 pmole/mg tissue | Conc, cortex [1, 12]: 0.16±0.05 pmole/mg tissue | Conc, hippocampus [1, 12]: 0.11±0.03 pmole/mg tissue | Conc, plasma [1, 12]: 120 ± 30 nM | Conc, striatum [1, 12]: 0.12±0.04 pmole/mg tissue | Ratio of concentration, brain stem to plasma [1, 12]: 1.1±0.4 | Ratio of concentration, cerebellum to plasma [1, 12]: 1.1±0.4 | Ratio of concentration, cortex to plasma [1, 12]: 1.3±0.5 | Ratio of concentration, hippocampus to plasma [1, 12]: 0.92±0.34 | Ratio of concentration, striatum to plasma [1, 12]: 1.0±0.4 | Ratio of concentration, whole brain to plasma [1, 12]: 1.2±0.4 | AUC 0–last, brain ([5]; repeated 25 mg/kg i.p. SB-3CT): 2.98 pmol·min/mg | AUC 0–last, plasma ([5]; repeated 25 mg/kg i.p. SB-3CT): 1.45 µM·min | AUC 0–∞, brain ([5]; repeated 25 mg/kg i.p. SB-3CT): 4.61 pmol·min/mg | t ½α, brain ([5]; repeated 25 mg/kg i.p. SB-3CT): 4.2 min | t ½α, plasma ([5]; repeated 25 mg/kg i.p. SB-3CT): 3.4 min | t ½β (elimination half-life), brain ([5]; repeated 25 mg/kg i.p. SB-3CT): 187 min | Brain concentration [5, 13]: 0.14±0.04 pmole/mg tissue | Plasma concentration [5, 14]: 120 ± 30 nM | Brain concentration [5, 15]: 0.026±0.005 pmole/mg tissue | Plasma concentration [5, 15]: 16 ± 4 nM | Brain concentration [5, 16]: 0.015±0.004 pmole/mg tissue | Plasma concentration [5, 16]: 6 ± 1 nM | Brain concentration [5, 17]: 0.011±0.007 pmole/mg tissue | Brain concentration [5, 18]: 0.0081±0.0022 pmole/mg tissue | Brain concentration [5, 19]: 0.0076±0.0009 pmole/mg tissue | Brain concentration [5, 20]: 0.0060±0.0004 pmole/mg tissue | Brain AUC /Plasma AUC ([5]; ratio of AUC 0–last, repeated 25 mg/kg i.p. SB-3CT): 2.1
